Results as given in US20050209157A1, “Short bioactive peptides and methods for their use” (priority 2001, published 2005).
No end group written: not given here.

What was measured:
[1] = Solubility of peptides in sheep serum; format: physicochemical
[2] = test system: human leukocyte (WBC) cells; experiment: Stimulation and proliferation of leukocytes, Alamar Blue; format: cell-based; settings: compared to untreated positive control cells; Alamar Blue

Substance	Solubility ([1]; sheep serum, […], 70% serum)	Solubility ([1]; sheep, 70% sheep serum) [µg/mL]	stimulatory and/or inhibitory action on growth of human leukocyte (WBC) cells [2]
FALKALKKLKKALKKAL-NH2 [P153]	Soluble	≥ 1280	–
MPKWKVFKKIEKVGRNIRNGIVKAGPAIAVLGEAKALG-NH2 [P12, reference compound]	–	–	stimulatory (and/or proliferative) at all concentrations through 500 μg/ml
